Read-outs that look alike come from different tables or passages of the source.

The text below walks through data of US20180092908A1, “SMALL MOLECULE OXIDIZERS OF PDI AND THEIR USE” (THE TRUSTEES OF COLUMBIA UNIVERSITY IN THE CITY OF NEW YORK, priority 2015, published 2018).

For one data set, the system named is PC12 mHTT^Q103 cells. Kind of data set: Rescue of PC12 cells from mHTT^Q103 induced cell death (Alamar blue viability). To be noted: Rattus norvegicus. The class given is cell-based. Background: The colour change of resazurin is a common sign of viable cells or microbes.
In data set [1] the target is T1, human catalytic PDI A1 a domain (PDIa) (Homo sapiens, UniProt P07237).
T1 construct: made in house; host or cells: Escherichia coli BL21-Gold (DE3)
Kind of data set: Isothermal titration calorimetry (ITC) binding to PDIa. In general terms: In ITC the heat of successive injections is recorded.

A short description of the next data set: Solubility. The conditions noted are these: DMSO, Table 5.

T1 sequence (P07237 with tags, fused parts or gaps): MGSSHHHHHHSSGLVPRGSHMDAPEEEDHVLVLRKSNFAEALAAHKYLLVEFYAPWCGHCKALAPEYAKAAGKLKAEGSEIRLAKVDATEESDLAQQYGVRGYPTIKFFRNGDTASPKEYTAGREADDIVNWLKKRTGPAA

As to `O=C(C1CC1)N1CCN(Cn2sc3ccccc3c2=O)CC1` [LOC14, 2-((4-(cyclopropanecarbonyl)piperazin-1-yl)methyl)benzo[d]isothiazol-3(2H)-one], the EC50 (as a rule, the concentration at which the effect is half-maximal) with PC12 mHTT^Q103 cells (PC-12, 48 h, read-out: EC50, rescue of PC12 mHTT^Q103 cells) was found to be 500 nM; in the data set on PC12 mHTT^Q103 cells (PC-12, read-out: Cell Viability Assay EC50), 102 nM. In addition, the “binding affinity to PDIa with 16F16 pre-treatment” value in data set [1] (40 μM PDIa pre-treated overnight with 200 μM 16F16) is reported as “reduced”. Also, the Kd (commonly the constant that tells how readily two partners part at equilibrium) in data set [1] (PDIa, Table 5, read-out: ITC Assay KD) was 113 nM; in data set [1] (reduced PDIa 40 μM, compound 400 μM, 25° C., read-out: dissociation constant (Kd)) it was 61.7 ± 5.6 nM. Further, in the data set “Solubility”, the “Solubility in DMSO” value stood at 100 mM in DMSO.
